{
  "source": "paper PMC9467586",
  "about": "“Development of novel 9-O-substituted-13-octylberberine derivatives as potential anti-hepatocellular carcinoma agents” (Journal of Enzyme Inhibition and Medicinal Chemistry, 2022)",
  "key": {"[1]": {"tested_on": "c-MYC G4 DNA (FPu18T)", "experiment": "FRET-melting assay, FPu18T (c-MYC G4 DNA model)", "conditions": "2 μM compounds"}, "[2]": {"tested_on": "duplex DNA (F10T)", "experiment": "FRET-melting assay, F10T (duplex DNA model)", "format": "binding", "conditions": "2 μM compounds"}, "[3]": {"tested_on": "HepG2 cells", "experiment": "Mitochondrial membrane potential (MMP) measurement with JC-1", "format": "cell-based, human", "conditions": "72 h (control 1.90%)", "experimental": "HepG2 cells were incubated with 6k as described above. After incubation for 72 h, the cells were washed in PBS and resuspended in 500 μL JC-1 incubation buffer at 37 °C for 15 min. Then, […] was immediately assessed for a red fluorescence using a microplate reader (ELx80, Bio-Tek, USA). The fluorescent signal of monomers was measured with an excitation wavelength of 488 nm. The percentage of cells with healthy or collapsed mitochondrial membrane potentials was monitored by flow cytometry analysis (BectoneDickinson, San Jose, CA, USA)."}, "[4]": {"tested_on": "human hepatoma cells including HepG2, Sk-Hep-1 and Huh-7 cells", "experiment": "Antiproliferative MTT assay, summary over human hepatoma cells", "format": "cell-based", "conditions": "read-out: IC50 values against human hepatoma cells (span over cell lines)", "experimental": "(§1) HepG2, Sk-Hep-1, Huh-7, Hep3B and L-02 cells were purchased from Nanjing Key Gen Biotech Co. Ltd. (Nanjing, China). The cytotoxicity of test compounds was determined using an MTT assay. Briefly, the cell lines were incubated at 37 °C in a humidified 5% CO2 incubator for 24 h in 96-microwell plates. After medium removal, 100 μL of culture medium with 0.1% DMSO containing test compounds at different concentrations was added to each well and incubated at 37 °C for another 72 h. The MTT (5 mg/mL in PBS) was added and incubated for another 4 h, the optical density was detected with a microplate reader at 490 nm. The IC50 values were calculated according to the dose-dependent curves. All the experiments were repeated in at least three independent experiments."}, "[5]": {"tested_on": "HepG2 cells", "experiment": "Annexin V-FITC/PI apoptosis assay, flow cytometry", "format": "cell-based, human", "conditions": "72 h (control 6.28%)", "experimental": "Briefly, after treatment with or without 6k at indicated concentrations for 72 h, the cells were washed twice in PBS, centrifuged and resuspended in 500 μL AnnexinV binding buffer. The cells were then harvested, washed and stained with 5 μL Annexin V-FITC and 5 μL PI in the darkness for 15 min. Apoptosis was analysed using a FACS Calibur flow cytometer (BectoneDickinson, San Jose, CA, USA)."}, "[6]": {"tested_on": "normal hepatocytes L-02", "experiment": "MTT cytotoxicity assay, normal hepatocytes L-02", "format": "cell-based", "conditions": "Hepatocyte; normal hepatocytes L-02, MTT, 72 h, mean ± SD (n = 3)", "experimental": "as §1"}},
  "data": [
    {"smiles": "CCCCCCCCc1c2[n+](cc3c(OCCCCCCCCN4CCN(C)CC4)c(OC)ccc13)CCc1cc3c(cc1-2)OCO3.[Br-]", "note": "[Compound 6k, 10-Methoxy-9-((8–(4-methylpiperazin-1-yl)octyl)oxy)-13-octyl-5,6-dihydro-[1,3]dioxolo[4,5-g]isoquinolino[3,2-a]isoquinolin-7-ium bromide]", "values": [
      {"measurement": "ΔTm(A) = Tm(FPu18T + compound) - Tm(FPu18T)", "setting": "[1]", "value": 13.8, "unit": "°C"},
      {"measurement": "ΔTm(B) = Tm(F10T + compound) - Tm(F10T)", "setting": "[2]", "value": 0.8, "unit": "°C"},
      {"measurement": "percentage of cells with green fluorescence (JC-1)", "setting": "[3]; HepG2, 0.25 μM", "value": 10.33, "unit": "%"},
      {"measurement": "percentage of cells with green fluorescence (JC-1)", "setting": "[3]; HepG2, 1.0 μM", "value": 37.52, "unit": "%"},
      {"measurement": "IC50", "setting": "[4]", "value": "0.62 to 1.69", "unit": "µM"},
      {"measurement": "total apoptotic cells (Q2 + Q3)", "setting": "[5]; HepG2, 0.25 μM", "value": 16.42, "unit": "%"},
      {"measurement": "total apoptotic cells (Q2 + Q3)", "setting": "[5]; HepG2, 0.50 μM", "value": 34.29, "unit": "%"},
      {"measurement": "total apoptotic cells (Q2 + Q3)", "setting": "[5]; HepG2, 1.0 μM", "value": 59.17, "unit": "%"},
      {"measurement": "IC50", "setting": "[6]", "value": "7.68 ± 0.67", "unit": "µM"}
    ]}
  ]
}
